Patent publication US11884647B2, “Compounds and methods for targeting pathogenic blood vessels” (THE REGENTS OF THE UNIVERSITY OF CALIFORNIA, priority 2019, dated 2024)

System: tumor endothelial cells (LL/2 lung cancer tumor)
Assay: Lung LL2 ex vivo model of tumor angiogenesis
Format: cell-based, mouse
Details: Lung LL2 ex vivo; Conc. 20 μm; (24 hrs)
Outline: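 Mouse LL2 tumor fragments (~0.5×0.5×0.3 mm) embedded in Matrigel and grown in endothelial growth medium at 37° C until endothelial outgrowth (about 4 days) before drug treatment. About 48 h after drug addition, stained 10 min with fluorescein diacetate/propidium iodide; live (green) and dead (red) cells imaged at 2× with fixed channel settings.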

| Compound | Cell death (24 hrs) [%] | Morphology observations (24 hrs) |
| --- | --- | --- |
| CCCCCCCCCCOc1ccc(S(=O)(=O)c2cnc3ccc([S+](C)[O-])cc3c2N2CCC(N3CCC(N4CCN(CCO)CC4)CC3)CC2)cc1 (stereo not drawn) [compound 292, 2-(4-(1′-(3-((4-(decyloxy)phenyl)sulfonyl)-6-(methylsulfinyl)quinolin-4-yl)-[1,4′-bipiperidin]-4-yl)piperazin-1-yl)ethan-1-ol] | 10 | * (50% or less of cells vesicularize in cell shape) |

Same assay, conditions: Lung LL2 ex vivo; Conc. 20 μm; drug treatment two days

| Compound | Cell death [%] |
| --- | --- |
| O=S(=O)(c1ccc(OC(F)(F)F)cc1)c1cnc2ccc(OC(F)(F)F)cc2c1N1CCC(N2CCCCC2)CC1 [compound 120, 4-([1,4′-bipiperidin]-1′-yl)-6-(trifluoromethoxy)-3-((4-(trifluoromethoxy)phenyl)sulfonyl)quinoline] | 5 |

Same assay, conditions: Lung LL2 ex vivo; Conc. 40 μm; drug treatment two days

| Compound | Cell death [%] |
| --- | --- |
| CCCCOc1ccc(S(=O)(=O)c2cnc3ccc(SC)cc3c2N2CCCN(S(=O)(=O)NCC(F)(F)F)CC2)cc1 [compound 353, 4-(3-((4-butoxyphenyl)sulfonyl)-6-(methylthio)quinolin-4-yl)-N-(2,2,2-trifluoroethyl)-1,4-diazepane-1-sulfonamide] | 0 |
| CCCCOc1ccc(S(=O)(=O)c2cnc3ccc(SC)cc3c2N2CCCN(c3nc4ccc(Cl)cc4s3)CC2)cc1 [compound 356, 2-(4-(3-((4-butoxyphenyl)sulfonyl)-6-(methylthio)quinolin-4-yl)-1,4-diazepan-1-yl)-6-chlorobenzo[d]thiazole] | 0 |
| CNC(=O)c1ccc2ncc(S(=O)(=O)c3ccc(OC)cc3)c(NC)c2c1 [compound 360, 3-((4-methoxyphenyl)sulfonyl)-N-methyl-4-(methylamino)quinoline-6-carboxamide] | 20 |
| CCCCOc1ccc(S(=O)(=O)c2cnc3ccc(C(=O)OCC)cc3c2N2CCN(c3ccc(F)cc3)CC2)cc1 [compound 213, ethyl 3-((4-butoxyphenyl)sulfonyl)-4-(4-(4-fluorophenyl)piperazin-1-yl)quinoline-6-carboxylate] | 30 |
| CCCCOc1ccc(S(=O)(=O)c2cnc3ccc(SC)cc3c2N2CCC(=O)N(C)CC2)cc1 [compound 357, 1-(3-((4-butoxyphenyl)sulfonyl)-6-(methylthio)quinolin-4-yl)-4-methyl-1,4-diazepan-5-one] | 0 |

Same assay, conditions: Mus musculus, Endothelial cell, 48 h, read-out: Cell death

| Compound | cytotoxicity at 40 µM [%] | cytotoxicity at 20 µM [%] | cytotoxicity at 10 µM [%] |
| --- | --- | --- | --- |
| COc1ccc(S(=O)(=O)c2cnc3ccc(C(=O)N(C)C)cc3c2N2CCC(N3CCCC3=O)CC2)cc1 [compound 332, 3-((4-methoxyphenyl)sulfonyl)-N,N-dimethyl-4-(4-(2-oxopyrrolidin-1-yl)piperidin-1-yl)quinoline-6-carboxamid] | 0 |  |  |
| CCCCCCCCCCCCCCCCOc1ccc(S(=O)(=O)c2cnc3ccc([S+](C)[O-])cc3c2N2CCC(N3CCC(N4CCCCC4)CC3)CC2)cc1 (stereo not drawn) [compound 377, 4-([1,4′:1′,4″-terpiperidin]-1″-yl)-3-((4-(hexadecyloxy)phenyl)sulfonyl)-6-(methylsulfinyl)quinoline] |  | 10 |  |
| CCc1ccc(S(=O)(=O)c2cnc3ccc(OC(F)(F)F)cc3c2-n2cccc2)cc1 [compound 108, 3-((4-ethylphenyl)sulfonyl)-4-(1H-pyrrol-1-yl)-6-(trifluoromethoxy)quinoline] |  | 0 |  |
| CCCCOc1ccc(S(=O)(=O)c2cnc3ccc(SC)cc3c2N2CCC(N3CCCN(C)CC3)CC2)cc1 [compound 234, 3-((4-butoxyphenyl)sulfonyl)-4-(4-(4-methyl-1,4-diazepan-1-yl)piperidin-1-yl)-6-(methylthio)quinoline] | 100 |  |  |
| COc1ccc(S(=O)(=O)c2cnc3cc(OC)c(OC)cc3c2N2CCCN(CCO)CC2)cc1 [compound 323, 2-(4-(6,7-dimethoxy-3-((4-methoxyphenyl)sulfonyl)quinolin-4-yl)-1,4-diazepan-1-yl)ethan-1-ol] | 30 |  |  |
| CCCCOc1ccc(S(=O)(=O)c2cnc3ccc([S+](C)[O-])cc3c2N2CCC(N3CCCCC3)CC2)cc1 (stereo not drawn) [compound 167, 4-([1,4′-bipiperidin]-1′-yl)-3-((4-butoxyphenyl)sulfonyl)-6-(methylsulfinyl)quinoline] |  | 40 |  |
| CCN(CC)CCOc1ccc(S(=O)(=O)c2cnc3ccc(SC)cc3c2N2CCCN(C)CC2)cc1 [compound 242, N,N-diethyl-2-(4-((4-(4-methyl-1,4-diazepan-1-yl)-6-(methylthio)quinolin-3-yl)sulfonyl)phenoxy)ethan-1-amine] | 30 |  |  |
| COc1ccc(S(=O)(=O)c2cnc3cc(OC)c(OC)cc3c2N2CCC(N3CCCC3=O)CC2)cc1 [compound 321, 1-(1-(6,7-dimethoxy-3-((4-methoxyphenyl)sulfonyl)quinolin-4-yl)piperidin-4-yl)pyrrolidin-2-one] | 40 |  |  |
| CCOC(=O)c1ccc2ncc(S(=O)(=O)c3ccc(OC)cc3)c(N3CCC(N4CCCCCC4)CC3)c2c1 [compound 173, ethyl 4-(4-(azepan-1-yl)piperidin-1-yl)-3-((4-methoxyphenyl)sulfonyl)quinoline-6-carboxylate] | 50 |  |  |
| CCCCCCCCCCOc1ccc(S(=O)(=O)c2cnc3ccc([S+](C)[O-])cc3c2N2CCC(N3CCC(N4CCCCC4)CC3)CC2)cc1 (stereo not drawn) [compound 269, 4-([1,4′:1′,4″-terpiperidin]-1″-yl)-3-((4-(decyloxy)phenyl)sulfonyl)-6-(methylsulfinyl)quinoline] |  | 100 |  |
| CCN(CC)CCN(CC)c1c(S(=O)(=O)c2ccc(OC)cc2)cnc2cc(OC)c(OC)cc12 [compound 296, N1-(6,7-dimethoxy-3-((4-methoxyphenyl)sulfonyl)quinolin-4-yl)-N1,N2,N2-triethylethane-1,2-diamine] | 20 |  |  |
| CCCCCCCOc1ccc(S(=O)(=O)c2cnc3ccc([S+](C)[O-])cc3c2N2CCN(CCN3CCCC3)CC2)cc1 (stereo not drawn) [compound 276, 3-((4-(heptyloxy)phenyl)sulfonyl)-6-(methylsulfinyl)-4-(4-(2-(pyrrolidin-1-yl)ethyl)piperazin-1-yl)quinoline] |  | 100 |  |
| CCCCCCCCCCCCOc1ccc(S(=O)(=O)c2cnc3ccc([S+](C)[O-])cc3c2N2CCC(N3CCN(CCO)CC3)CC2)cc1 (stereo not drawn) [compound 339, 2-(4-(1-(3-((4-(dodecyloxy)phenyl)sulfonyl)-6-(methylsulfinyl)quinolin-4-yl)piperidin-4-yl)piperazin-1-yl)ethan-1-ol] |  | 50 |  |
| CCCCCCCCCCCCOc1ccc(S(=O)(=O)c2cnc3ccc([S+](C)[O-])cc3c2N2CCC(N3CCC(N4CCC(O)CC4)CC3)CC2)cc1F (stereo not drawn) [compound 372, 1″-(3-((4-(dodecyloxy)-3-fluorophenyl)sulfonyl)-6-(methylsulfinyl)quinolin-4-yl)-[1,4′:1′,4″- terpiperidin]-4-ol] |  | 20 |  |
| CCCCOc1ccc(S(=O)(=O)c2cnc3ccc(SC)cc3c2N2CCC(N3CCC(O)CC3)CC2)cc1 [compound 162, 1′-(3-((4-butoxyphenyl)sulfonyl)-6-(methylthio)quinolin-4-yl)-[1,4′-bipiperidin]-4-ol] | 70 |  |  |
| CCCCCCCOc1ccc(S(=O)(=O)c2cnc3ccc([S+](C)[O-])cc3c2N2CCN(C3CCN(Cc4ccccc4)C3)CC2)cc1 (stereo not drawn) [compound 278, 4-(4-(1-benzylpyrrolidin-3-yl)piperazin-1-yl)-3-((4-(heptyloxy)phenyl)sulfonyl)-6-(methylsulfinyl)quinoline] |  |  | 50 |
| CCCCCCCOc1ccc(S(=O)(=O)c2cnc3ccc(SC)cc3c2N2CCN(C3CCN(Cc4ccccc4)C3)CC2)cc1 (stereo not drawn) [compound 274, 4-(4-(1-benzylpyrrolidin-3-yl)piperazin-1-yl)-3-((4-(heptyloxy)phenyl)sulfonyl)-6-(methylthio)quinoline] |  | 10 |  |
| CCc1ccc(S(=O)(=O)c2cnc3ccc(OC(F)(F)F)cc3c2NN2CCCCC2)cc1 [compound 105, 3-((4-ethylphenyl)sulfonyl)-N-(piperidin-1-yl)-6-(trifluoromethoxy)quinolin-4-amine] |  | 0 |  |
| CCCCOc1ccc(S(=O)(=O)c2cnc3ccc([S+](C)[O-])cc3c2N2CCC(N3CCOCC3)CC2)cc1 (stereo not drawn) [compound 235, 4-(1-(3-((4-butoxyphenyl)sulfonyl)-6-(methylsulfinyl)quinolin-4-yl)piperidin-4-yl)morpholine] | 10 |  |  |
| COc1ccc(S(=O)(=O)c2cnc3cc(OC)c(OC)cc3c2N2CCC(N3CCCC3CO)CC2)cc1 (stereo not drawn) [compound 322, (1-(1-(6,7-dimethoxy-3-((4-methoxyphenyl)sulfonyl)quinolin-4-yl)piperidin-4-yl)pyrrolidin-2-yl)methanol] | 30 |  |  |
| CCCCOc1ccc(S(=O)(=O)c2cnc3ccc(S(C)(=O)=O)cc3c2N2CCC(N3CCCCC3)CC2)cc1 [compound 169, 4-([1,4′-bipiperidin]-1′-yl)-3-((4-butoxyphenyl)sulfonyl)-6-(methylsulfonyl)quinoline] |  | 40 |  |
| CCCCOc1ccc(S(=O)(=O)c2cnc3ccc(C(=O)OCC)cc3c2N2CCC(N3CCCCCC3)CC2)cc1 [compound 176, ethyl 4-(4-(azepan-1-yl)piperidin-1-yl)-3-((4-butoxyphenyl)sulfonyl)quinoline-6-carboxylate] | 100 |  |  |
| CCOC(=O)c1ccc2ncc(S(=O)(=O)c3ccc(CC)cc3)c(-n3nnc4ccccc43)c2c1 [compound 133, ethyl 4-(1H-benzo[d][1,2,3]triazol-1-yl)-3-((4-ethylphenyl)sulfonyl)quinoline-6-carboxylate] |  | 10 |  |
| CCOC(=O)c1ccc2ncc(S(=O)(=O)c3ccc(OC)cc3)c(-n3ccnn3)c2c1 [compound 184, ethyl 3-((4-methoxyphenyl)sulfonyl)-4-(1H-1,2,3-triazol-1-yl)quinoline-6-carboxylate] |  |  | 5 |
| CCc1ccc(S(=O)(=O)c2cnc3ccc(OC(F)(F)F)cc3c2NCCCCCO)cc1 [compound 104, 5-((3-((4-ethylphenyl)sulfonyl)-6-(trifluoromethoxy)quinolin-4-yl)amino)pentan-1-ol] |  | 20 |  |
